Marks after values point to notes of the source that are not given here.
Test system: prostate gland
Assay: Prostate weight in male rats after once daily intravenous infusion for four weeks
Format: in vivo, rat
Conditions: 15-min iv infusion once daily for four weeks, N=10
Method: Male rats were divided into a control group and three test groups with 20 animals per group. Animals were administered the MetAP-2 inhibitor Compound I, represented by the formula: Compound I was prepared in a 5% mannitol solution was administered once daily for four weeks by a fifteen-minute intravenous infusion according to Table I. [table] Ten animals from each group were euthanized at the end of the four weeks. The remaining ten animals were allowed to recover for 10 additional weeks and were then euthanized.

Compound: CO[C@@H]1[C@H](OC(=O)/C=C/c2ccc(OCCN(C)C)cc2)CCC2(CO2)[C@H]1[C@@]1(C)O[C@@H]1CC=C(C)C (stereo in doubt) [Compound I]
- Prostate Weight (g) Mean (0.04 mg/kg/day): 0.90** g
- Prostate Weight (g) Mean (0.2 mg/kg/day): 0.89** g
- Prostate Weight (g) Mean (1.0 mg/kg/day): 0.76** g

Source: patent US8815309B2, “Methods of treating a subject with benign prostate hyperplasia” (Zafgen, Inc., priority 2010, dated 2014)
